We go through 4 compounds from PMC10417023, “Imidazole-4-N-acetamide Derivatives as a Novel Scaffold for Selective Targeting of Cyclin Dependent Kinases” (Cancers, 2023).

What all share (test): […]-ATP radiometric filter-binding kinase assay
What all share (assay type): biochemical

One assay concerns the target T1, CDK9/cyclin K (Homo sapiens, UniProt P50750).
T1 construct: purified CDK9/cyclin K complex; with Cyclin-K

Another assay has as its target T2, CDK5/p35 (Homo sapiens, UniProt Q00535).
T2 construct: purified CDK5/p35 complex

A further assay addresses T3, CDK2/cyclin E (Homo sapiens, UniProt P24941).
T3 construct: purified CDK/cyclin complex; with G1/S-specific cyclin-E1

Another assay deals with T4, CDK1/cyclin E (Homo sapiens, UniProt P06493).
T4 construct: purified CDK/cyclin complex; with G1/S-specific cyclin-E1
T4 sequence (P06493 whole entry): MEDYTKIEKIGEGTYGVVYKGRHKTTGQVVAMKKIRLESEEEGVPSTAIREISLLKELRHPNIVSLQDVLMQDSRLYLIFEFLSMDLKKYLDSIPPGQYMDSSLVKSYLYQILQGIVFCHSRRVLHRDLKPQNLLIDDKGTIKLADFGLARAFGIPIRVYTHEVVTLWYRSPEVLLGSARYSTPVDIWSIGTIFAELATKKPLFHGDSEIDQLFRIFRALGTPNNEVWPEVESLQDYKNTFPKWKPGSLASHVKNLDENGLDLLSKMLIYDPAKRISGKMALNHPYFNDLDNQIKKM
T4 sequence (P24864 whole entry partner): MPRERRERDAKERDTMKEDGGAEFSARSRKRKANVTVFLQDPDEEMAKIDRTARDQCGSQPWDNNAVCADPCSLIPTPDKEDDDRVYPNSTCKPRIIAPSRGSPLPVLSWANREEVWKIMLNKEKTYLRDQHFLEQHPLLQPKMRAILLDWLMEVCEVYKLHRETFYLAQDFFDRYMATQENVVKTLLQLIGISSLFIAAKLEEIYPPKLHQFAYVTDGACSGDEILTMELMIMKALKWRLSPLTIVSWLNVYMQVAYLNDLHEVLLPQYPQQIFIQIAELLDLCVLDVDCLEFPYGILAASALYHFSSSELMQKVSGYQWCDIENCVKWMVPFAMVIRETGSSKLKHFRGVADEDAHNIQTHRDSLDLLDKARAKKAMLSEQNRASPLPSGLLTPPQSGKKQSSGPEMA

Molecules are shown by their SMILES. Read-outs that look alike come from different tables or passages of the source.

T2 sequence (Q00535 whole entry): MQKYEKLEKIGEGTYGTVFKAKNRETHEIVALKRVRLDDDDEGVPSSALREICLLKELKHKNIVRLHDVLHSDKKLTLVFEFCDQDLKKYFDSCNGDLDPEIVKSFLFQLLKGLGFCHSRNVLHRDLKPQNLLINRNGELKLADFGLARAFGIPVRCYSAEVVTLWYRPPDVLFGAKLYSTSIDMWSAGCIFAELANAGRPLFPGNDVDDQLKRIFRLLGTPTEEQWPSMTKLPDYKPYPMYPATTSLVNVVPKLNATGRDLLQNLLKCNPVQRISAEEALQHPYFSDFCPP
T2 sequence (Q15078 2-307 partner): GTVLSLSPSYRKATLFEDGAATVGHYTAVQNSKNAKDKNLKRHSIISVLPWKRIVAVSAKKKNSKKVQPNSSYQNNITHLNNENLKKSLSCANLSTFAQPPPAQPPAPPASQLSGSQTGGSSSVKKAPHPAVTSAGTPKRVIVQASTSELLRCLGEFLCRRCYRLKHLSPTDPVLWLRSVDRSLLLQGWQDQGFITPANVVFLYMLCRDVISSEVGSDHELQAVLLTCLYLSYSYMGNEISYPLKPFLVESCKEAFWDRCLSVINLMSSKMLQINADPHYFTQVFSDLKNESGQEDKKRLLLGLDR
T1 sequence (P50750 whole entry): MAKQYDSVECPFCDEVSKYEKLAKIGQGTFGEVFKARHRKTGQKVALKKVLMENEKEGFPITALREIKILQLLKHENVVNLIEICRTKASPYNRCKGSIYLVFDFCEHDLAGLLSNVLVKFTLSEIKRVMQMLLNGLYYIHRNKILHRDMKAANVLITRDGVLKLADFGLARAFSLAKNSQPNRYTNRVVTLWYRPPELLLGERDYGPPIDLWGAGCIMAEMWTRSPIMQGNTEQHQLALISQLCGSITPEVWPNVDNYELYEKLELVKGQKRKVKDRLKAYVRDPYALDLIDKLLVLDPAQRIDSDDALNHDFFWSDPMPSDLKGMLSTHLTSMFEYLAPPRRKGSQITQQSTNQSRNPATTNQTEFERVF
T1 sequence (O75909 whole entry partner): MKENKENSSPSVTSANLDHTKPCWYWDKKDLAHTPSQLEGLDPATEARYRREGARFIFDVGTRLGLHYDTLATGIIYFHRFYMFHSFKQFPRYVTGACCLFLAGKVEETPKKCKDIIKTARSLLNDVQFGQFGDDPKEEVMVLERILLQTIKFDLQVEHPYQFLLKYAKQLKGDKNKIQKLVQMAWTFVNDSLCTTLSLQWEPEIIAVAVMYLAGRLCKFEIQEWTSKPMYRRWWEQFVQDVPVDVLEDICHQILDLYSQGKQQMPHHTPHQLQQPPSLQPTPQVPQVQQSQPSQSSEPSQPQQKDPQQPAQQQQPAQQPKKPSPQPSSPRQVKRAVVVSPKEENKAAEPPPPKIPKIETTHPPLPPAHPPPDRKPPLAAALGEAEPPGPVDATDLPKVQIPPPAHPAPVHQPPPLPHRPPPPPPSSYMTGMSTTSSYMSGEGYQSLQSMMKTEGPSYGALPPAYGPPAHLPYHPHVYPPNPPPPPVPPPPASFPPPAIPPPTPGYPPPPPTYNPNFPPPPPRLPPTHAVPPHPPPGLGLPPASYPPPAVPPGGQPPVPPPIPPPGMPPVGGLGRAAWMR

Take `CC(C)n1cnc(NC(=O)Cc2ccccn2)c1` [compound 4, Compound 4]: the IC50 was 0.88 µM at CDK9/cyclin K (read-out: Compound 4), 20 µM at CDK5/p35 (read-out: Compound 4), 0.27 µM on CDK2/cyclin E (read-out: Compound 4) and 6.2 µM on CDK1/cyclin E (read-out: Compound 4).
As to `CC(C(=O)Nc1cn(C(C)C)cn1)c1ccccc1` (racemic) [compound 3, Compound 3], the IC50 at CDK9/cyclin K (read-out: Compound 3) was found to be 4.3 µM; at CDK5/p35 (read-out: Compound 3) it was 79 µM; at CDK2/cyclin E (read-out: Compound 3), 1.2 µM; at CDK1/cyclin E (read-out: Compound 3) it was 30 µM.
Take `CC(C)n1cnc(NC(=O)Cc2ccccc2)c1` [compound 1, Compound 1]: the IC50 was 3 µM on CDK9/cyclin K (read-out: Compound 1), 40 µM on CDK5/p35 (read-out: Compound 1), 0.71 µM on CDK2/cyclin E (read-out: Compound 1) and 14 µM at CDK1/cyclin E (read-out: Compound 1).
Consider `CC(C)n1cnc(NC(=O)Cc2ccccc2O)c1` [compound 2, Compound 2], for which the IC50 on CDK9/cyclin K (read-out: Compound 2) came out at 1 µM; on CDK5/p35 (read-out: Compound 2), 0.88 µM; at CDK2/cyclin E (read-out: Compound 2), 0.16 µM; on CDK1/cyclin E (read-out: Compound 2), 0.72 µM.
